Square brackets hold non-standard residues; d marks the D form. Peptide text beside a SMILES is read from it. ξ: configuration not given here. 1Nal = N[C@@H](Cc1cccc2ccccc12)C(=O)O; ξ1Nal = NC(Cc1cccc2ccccc12)C(=O)O; 3Amb = NCc1cccc(C(=O)O)c1
System: not listed separately
Assay: Oral bioavailability determined in rats
Type: ADME, organism-based
Conditions: rat, in vivo

| bioavailability [%] | SMILES |
| --- | --- |
| < 5 | CC(C)(N)CC(=O)N[C@@H]1CCc2c(ccc3ccccc23)N(Cc2ccc(-c3ccccc3-c3nn[nH]n3)cc2)C1=O |

Species: Rattus norvegicus
Assay: Compound was evaluated for its potency using rat pituitary cell assay
Type: functional
Conditions: Pituitary gland cell, read-out: ED50 (the source's name)

| SMILES | EC50 [nM] |
| --- | --- |
| CC(C)(N)CC(=O)N[C@@H]1CCc2ccccc2N(Cc2ccc(-c3ccccc3)cc2)C1=O | 1700 |
| CC(C)(N)CC(=O)N[C@@H]1CCc2ccccc2N(Cc2ccccc2)C1=O | 1000 |
| CC(C)(N)CC(=O)N[C@@H]1CCc2ccccc2N(Cc2ccc(-c3ccccc3-c3nn[nH]n3)cc2)C1=O | 125 |
| Cc1nnc(-c2cscc2-c2ccc(CN3C(=O)[C@H](NC(=O)CC(C)(C)N)CCc4c3ccc3ccccc43)cc2)o1 | 37 |
| CC(C)(N)CC(=O)N[C@@H]1CCc2c(ccc3ccccc23)N(Cc2ccccc2)C1=O | 8500 |
| Cc1nnc(-c2cscc2-c2ccc(CN3C(=O)[C@H](NC(=O)CC(C)(C)N)CCc4ccccc43)cc2)o1 | 62 |
| NC1(C(=O)N[C@@H]2CCc3c(ccc4ccccc34)N(Cc3ccc(-c4ccccc4-c4nn[nH]n4)cc3)C2=O)CC1 | 175 |

Compounds with a lower EC50, results first:

| EC50 [nM] | SMILES |
| --- | --- |
| 7 | NCCCC[C@H](NC(=O)[C@H](Cc1ccccc1)NC(=O)C(Cc1cccc2ccccc12)NC(=O)c1cccc(CN)c1)C(N)=O (some centres not stated) (H-[3Amb][ξ1Nal]FK-NH2) |
| 2 | C[C@H](N)C(=O)N[C@@H](Cc1ccccc1)C(=O)N[C@@H](Cc1cccc2ccccc12)C(=O)N[C@@H](Cc1ccccc1)C(=O)N[C@@H](CCCCN)C(N)=O (H-AF[1Nal]FK-NH2) |
| 30 | CC(C)(N)C(=O)N[C@@H]1CCc2ccccc2N(Cc2ccc(-c3ccccc3-c3nn[nH]n3)cc2)C1=O |
| 4 | CC(C)(N)CC(=O)N[C@@H]1CCc2c(ccc3ccccc23)N(Cc2ccc(-c3ccccc3-c3nn[nH]n3)cc2)C1=O |

— ChEMBL document CHEMBL1129228, “Naphtho-fused azepines as potent growth hormone secretagogues” (Bioorg Med Chem Lett, 1997)
